Measured values published in patent publication US5753650A, “Inhibitors of farnesyl-protein transferase” (Merck & Co., Inc., priority 1996, dated 1998).

Biological target: Farnesyl-protein transferase (FTase)
Assay: In vitro inhibition of Ras farnesyl transferase (farnesylation of Ras-CVLS with [3H]FPP)
Assay type: biochemical
Conditions: Ras-CVLS 3.5 μM, [3H]FPP 0.25 μM; partially purified bovine or recombinant human enzyme; read-out: IC50 (concentration of the test compound which gives 50% inhibition of FTase)
Experimental: Farnesyl-protein transferase (FTase) from bovine brain was chromatographed on DEAE-Sephacel (Pharmacia, 0-0.8 M NaCl gradient elution), N-octyl agarose (Sigma, 0-0.6 M NaCl gradient elution), and a mono Q HPLC column (Pharmacia, 0-0.3 M NaCl gradient). Ras-CVLS at 3.5 μM, 0.25 μM [^3 H]FPP, and the indicated compounds were incubated with either a partially purified bovine enzyme preparation or a recombinant human enzyme preparation. The recombinant human enzyme was prepared as described in Omer, C. A., Kral, A. M., Diehl, R. E., Prendergast, G. C., Powers, S., Allen, C. M., Gibbs, J. B. and Kohl, N. E. (1993) Biochemistry 32:5167-5176. The FTase data presented below in Table 1 reflects the ability of the test compound to inhibit RAS farnesylation in vitro, as described in Pompliano, et al. Biochemistry 31:3800 (1992).
*(IC50 is the concentration of the test compound which gives 50%
inhibition of FTase under the described assay conditions)

Row | Compound | IC50 [nM]
1 | CN(C(=O)[C@@H](N)CS)C1N=C(c2ccccc2)c2ccccc2NC1=O (single isomer, unassigned) [1 - faster eluting isomer] | 2600
2 | 3-[N-2(S)-amino-3-mercaptopropionyl-N-methyl]amino-2,3-dihydro-2-oxo-5-phenyl-1H-1,4-benzodiazepine [1 - slower eluting isomer] | 110
3 | N[C@@H](CS)C(=O)NC1N=C(c2ccccc2)c2ccccc2NC1=O (single isomer, unassigned) [2 - faster eluting isomer] | 1600
4 | N[C@@H](CS)C(=O)NC1N=C(c2ccccc2)c2ccccc2NC1=O (single isomer, unassigned) [2 - slower eluting isomer] | 42000
